One data set deals with MDA-MB-231. The data set is described as follows: MTT cell viability assay on MDA-MB-231 cells. It is filed as cell-based. The conditions noted are these: for EC50: 96-well plates, 4000 cells/well, viability after 3 days by MTT, mean ± SD of three independent experiments. The procedure:
(§1) A prerequisite to further bioorthogonal modifications is to preserve the biological properties of ferrociphenol compounds. Then, the impact of some of the grafted substituents on the antiproliferative activity was examined by a classical MTT cell viability assay on the two breast cancer cell lines MDA-MB-231 and MCF-7 as well as on the non-tumorigenic cell line hTERT-RPE1 (Table 3). The two cancer cell lines were chosen since most of the previously reported data on ferrocifens were carried out on these cellular models. The experimental protocol is described in Section 3.14., and it is important to emphasize here that the EC50 values reported in Table 3 are not to be compared to the IC50 values reported in the literature, since the assay conditions are different. For this reason, we included as a reference the ferrocenyl derivative of hydroxytamoxifen Fc-OH-TAM-3 [8] that is known to be cytotoxic to numerous cell lines. […] This feature was taken into account when performing data fitting.
(§2) MDA-MB-231, MCF-7, and hTERT-RPE1 cells were obtained from ATCC. Cells were maintained in a monolayer culture in DMEM with phenol red with Glutamax I (MDA-MB-231) or 2 mM L-glutamine (MCF-7) or 15 mM HEPES (hTERT-RPE1) supplemented with 10% FBS at 37 °C in a humidified atmosphere and 5% CO2. Stock solutions of the complexes were prepared in DMSO. Cells were seeded in 96-well plates at a density of 4000 cells/well. After overnight attachment, a dilution series of the compounds were added in the medium, and cells were incubated for a further 72 h. […] Cell viability was evaluated by using a colorimetric method based on the tetrazolium salt MTT [3-(4,5-dimethylthiazol-2-yl)-2,5-diphenyltetrazolium bromide], which is reduced by viable cells to yield purple formazan crystals. After 72 h, the medium was removed and the cells were incubated with MTT solution in PBS (10 μL of a 5 mg/mL) for 2–3 h of incubation. The formed purple formazan crystals were dissolved in 100 μL DMSO by thorough shaking, and the absorbance at 560 nm was read using a microplate reader (FLUOstar OPTIMA, BMG Labtech, Ortenberg, Germany). Each test was performed with at least three replicates and repeated at least three times. EC50 were determined using Dr Fit software.

A further data set relates to MCF-7. The data set is described as follows: MTT cell viability assay on MCF-7 cells. The conditions noted are these: for EC50: 96-well plates, 4000 cells/well, viability after 3 days by MTT, mean ± SD of three independent experiments. It is filed as cell-based. As for the experimental part:
as §1, §2

For a further data set, the system named is hTERT-RPE1. The data set is described as follows: MTT cell viability assay on non-tumorigenic hTERT-RPE1 cells. The format is cell-based. Conditions: for EC50: 96-well plates, 4000 cells/well, viability after 3 days by MTT, mean ± SD of three independent experiments; for toxicity on hTERT-RPE1 compared with MCF-7: comparison of EC50 values. The procedure: as §1, §2

A further data set addresses T1, HRP (Armoracia rusticana, UniProt P00433).
T1 construct: purchased
T1 sequence (P00433 31-338 limits assumed): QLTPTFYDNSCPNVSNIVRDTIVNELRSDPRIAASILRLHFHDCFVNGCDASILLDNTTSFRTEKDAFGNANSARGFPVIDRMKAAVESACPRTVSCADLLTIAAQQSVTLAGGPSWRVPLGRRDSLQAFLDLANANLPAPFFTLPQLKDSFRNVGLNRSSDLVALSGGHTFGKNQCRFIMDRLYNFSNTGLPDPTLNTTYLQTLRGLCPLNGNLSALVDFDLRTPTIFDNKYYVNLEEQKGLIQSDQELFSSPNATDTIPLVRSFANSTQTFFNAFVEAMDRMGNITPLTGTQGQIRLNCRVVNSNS
The experiment in a line: Enzymatic oxidation with HRP and H2O2. It is filed as biochemical. The conditions noted are these: fourfold molar excess of H2O2, HRP, pH 8.1; λmax 571–572 nm. The procedure: Enzymatic oxidation of 19, 20, 22, 23, and 25 was performed with a fourfold molar excess of H2O2 in the presence of HRP at pH 8.1. […] This behavior is reminiscent of that previously observed for a structurally related diphenol complex, which lets us conclude that enzymatic oxidation of 19, 20, 22, 23, and 25 affords the corresponding quinone methide in the anionic phenolate form, regardless of the substituent grafted from the phthalimide ring.
Figure S51. UV-vis spectra of compounds 19, 20, 22, 23 and 25 (50 µM) treated by HRP (46 nM) and H2O2 (200 µM) in 0.2 M TRIS buffer pH 8.1. Conversion to the phenolate form of the quinone methides is assessed by the appearance of the characteristic bands at ca. 570 and 360 nm. […]

The nature of data set [1]: Solubility tests by shaking suspensions and RP-HPLC analysis of supernatants. It is filed as physicochemical. Conditions: for solubility in aqueous medium: water or PBS, shaken overnight at room temperature, RP-HPLC of supernatants, theoretical concentration 1 mM. As for the experimental part: Due to water insolubility being a known issue for the ferrocidiphenol family, we exploited this strategy to attach substituents that could increase their solubility in a biologically relevant context. Thus, attaching short and monodisperse PEG chains seemed interesting. The tetraethylene glycol chain was readily grafted to A to afford 22 in 79% yield at room temperature in less than 3 h.
Figure S50: Solubility studies by RP-HPLC analysis of compounds 18 (A), 20 (B) and […]
A given amount of compounds 18, 20 and 22 was weighted and suspended in a given volume of tested solvent (DMSO, MeOH, PBS and H2O) to reach a theoretical concentration of 1 mM. Suspensions were sonicated for 1 min and shaken at R.T. for 18 h. The resulting solutions were filtrated (pore size 0.2 µm) and diluted to 100 µM in MeCN (for the solutions in organic solvents). HPLC analysis was performed on Nucleodur C18 column, (100 Å , 5 µm, 4.6 x 150 mm, Macherey-Nagel) using […]
(also on this page, place not known: MeOH DMSO PBS – H2O A PBS MeOH DMSO PBS B H2O MeOH DMSO PBS – H2O C) […]

Data set [2] relates to triple negative breast cancer cell line MDA-MB-231. The conditions noted are these: measured after 5 days of incubation (stated for B and C); cited from earlier work.
Data set [3] concerns NCI-60 panel of human cancer cells. Also noted: method as in PMID 30977944. The conditions noted are these: read-out: mean GI50 (half maximal growth inhibition); cited from earlier work.
Data set [4] relates to glioblastoma cell model U87. Also noted: method as in PMID 26136201. Conditions: cited from earlier work.

With `C#CCCCC1c2ccccc2C(=O)N1CCCC(=C(c1ccc(O)cc1)c1ccc(O)cc1)[c-]1cccc1.[Fe+2].c1cc[cH-]c1` (stereo not drawn) [Compound 23, 2,3-Dihydro-3-(pent-4-ynyl)-2-[4-ferrocenyl-5,5-bis-(4-hydroxyphenyl)-pent-4-enyl]-1H-isoindol-1-one], the EC50 was 2.4 ± 0.5 µM in the data set on MDA-MB-231, 4.2 ± 0.7 µM in the data set with MCF-7 and 12.9 ± 3.3 µM in the data set with hTERT-RPE1. Also, the “selectivity: less toxic on hTERT-RPE1 with respect to MCF-7” value with hTERT-RPE1 (ratio of EC50 values) amounted to 3 fold. Further, the “enzymatic oxidation to quinone methide” value on HRP was “rapidly converted to bright pink adducts”.
With `COCCOCCOCCOCCOCCOCCOCCSC1c2ccccc2C(=O)N1CCCC(=C(c1ccc(O)cc1)c1ccc(O)cc1)[c-]1cccc1.[Fe+2].c1cc[cH-]c1` (stereo not drawn) [Compound 27, S-{2,3-Dihydro-2-[4-ferrocenyl-5,5-bis-(4-hydroxyphenyl)-pent-4-enyl]-1H-isoindol-1-one-3-yl}-1-thia-4,7,10,13,16,19,22-heptaoxatricosane], the “solubility in aqueous medium” value in data set [1] is given as “none of these compounds were soluble in aqueous medium”.
Take `O=C1c2ccccc2C(=O)N1CCCC[c-]1cccc1.[Fe+2].c1cc[cH-]c1` [Compound 3h, N-(4-ferrocenylbutyl) Phthalimide]: the EC50 with MDA-MB-231, in the data set with MCF-7 and with hTERT-RPE1 was greater than 50 µM throughout. For the same compound, the “inhibition of cell growth, MDA-MB-231” value in the data set with MDA-MB-231 (MTT, 72 h) is given as “did not inhibit cell growth”. In addition, in the data set with MCF-7 (MTT, 72 h), the “inhibition of cell growth, MCF-7” value was “did not inhibit cell growth”. Also, the “inhibition of cell growth, hTERT-RPE1” value in the data set on hTERT-RPE1 (MTT, 72 h) was “did not inhibit cell growth”.
As to “2,3-Dihydro-3-(2-methoxycarbonylethylthio)-2-[4-ferrocenyl-5,5-bis-(4-hydroxyphenyl)-ent-4-enyl]-1H-isoindol-1-one [Compound 25]”, the EC50 in the data set with MDA-MB-231 turned out to be 18 ± 0.4 µM; in the data set on MCF-7, 4.7 ± 1.4 µM; in the data set with hTERT-RPE1, 9.1 ± 0.4 µM. Also, the “toxicity on hTERT-RPE1 compared with MCF-7” value in the data set with hTERT-RPE1 is listed as “twice more toxic”. In addition, the “enzymatic oxidation to quinone methide” value at HRP is “rapidly converted to bright pink adducts”.
Take `O=C1c2ccccc2C(OCCOCCOCCOCCO)N1CCCC(=C(c1ccc(O)cc1)c1ccc(O)cc1)[c-]1cccc1.[Fe+2].c1cc[cH-]c1` (stereo not drawn) [Compound 22, O-{2,3-Dihydro-2-[4-ferrocenyl-5,5-bis-(4-hydroxyphenyl)-pent-4-enyl]-1H-isoindol-1-one-3-yl}-12-hydroxy-1,4,7,10-tetraoxadodecane]: the EC50 in the data set on MDA-MB-231 came out at 8.8 ± 2.5 µM; in the data set with MCF-7, 29.9 ± 1.3 µM; in the data set on hTERT-RPE1, 24.7 ± 1.1 µM. For the same compound, the “toxicity on hTERT-RPE1 compared with MCF-7” value in the data set on hTERT-RPE1 is listed as “similar”. Moreover, the “solubility in aqueous medium” value in data set [1] is “none of these compounds were soluble in aqueous medium”. Also, on HRP, the “enzymatic oxidation to quinone methide” value is listed as “rapidly converted to bright pink adducts”.
As for `O=C1c2ccccc2C(CCCCCCO)N1CCCC(=C(c1ccc(O)cc1)c1ccc(O)cc1)[c-]1cccc1.[Fe+2].c1cc[cH-]c1` (stereo not drawn) [Compound 21, 2,3-Dihydro-3-(6-hydroxyhexyl)-2-[4-ferrocenyl-5,5-bis-(4-hydroxyphenyl)-pent-4-enyl]-1H-isoindol-1-one], the “solubility in organic solvents” value in data set [1] was “improved the solubility in organic solvents including DCM”.
Regarding `O=C1CCC(=O)N1CCCC(=C(c1ccc(O)cc1)c1ccc(O)cc1)[c-]1cccc1.[Fe+2].c1cc[cH-]c1` [Compound B], the IC50 in data set [2] is 0.035 µM. In addition, the GI50 in data set [3] was roughly 0.1 µM.
On to “O-{2,3-Dihydro-2-[4-ferrocenyl-5,5-bis-(4-hydroxyphenyl)-pent-4-enyl]-1H-isoindol-1-one-3-yl}-24-azido-1,4,7,10,13,16,19,22-octaoxatetracosane [Compound 24]”, for which the “solubility in aqueous medium” value in data set [1] is reported as “none of these compounds were soluble in aqueous medium”.
With `O=C1c2ccccc2C(CCO)N1CCCC(=C(c1ccc(O)cc1)c1ccc(O)cc1)[c-]1cccc1.[Fe+2].c1cc[cH-]c1` (stereo not drawn) [Compound 20, 2,3-Dihydro-3-(2-hydroxyethyl)-2-[4-ferrocenyl-5,5-bis-(4-hydroxyphenyl)-pent-4-enyl]-1H-isoindol-1-one], the concentration giving a half-maximal response (EC50) was found to be 6.3 ± 2.1 µM in the data set with MDA-MB-231, 10.6 ± 0.3 µM with MCF-7 and 5 ± 0.2 µM with hTERT-RPE1. Further, in the data set with hTERT-RPE1, the “toxicity on hTERT-RPE1 compared with MCF-7” value was “twice more toxic”. For the same compound, the “solubility in organic solvents” value in data set [1] was “poorly soluble in organic solvents, except for DMSO”. Further, the “solubility in aqueous medium” value in data set [1] is “none of these compounds were soluble in aqueous medium”. Also, the “enzymatic oxidation to quinone methide” value on HRP is “rapidly converted to bright pink adducts”.
Take `O=C1c2ccccc2C(=O)N1CCCC(=C(c1ccc(O)cc1)c1ccc(O)cc1)[c-]1cccc1.[Fe+2].c1cc[cH-]c1` [A]: the values for the IC50 in data set [4] and in data set [2] were 0.018 µM and 0.145 µM, respectively.

Source of the values: paper PMC9324693, “α-Hydroxylactams as Efficient Entries to Diversely Functionalized Ferrociphenols: Synthesis and Antiproliferative Activity Studies” (Molecules, 2022).
